The values below come from PubChem BioAssay AID330 (DTP/NCI, 2004).

The subject of this test is P388 leukemia ip, CD2F1 mice, survival T/C. As to the kind of experiment: NCI In Vivo Anticancer Drug Screen. Data for tumor model P388 Leukemia (intraperitoneal) in CD2F1 (CDF1) mice. Particulars: endpoint: median survival time, higher = longer survival. The procedure, abridged: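 Mice carrying the transplanted tumor received test compound or vehicle. Survival was recorded in each group, and the value is the treated-group measurement divided by that of the vehicle-treated control group.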

The mark [1] stands for this setting: dose: 50.0 mg/kg/injection, schedule: Q01DX009 (ip), vehicle: saline with Tween-80.
[2] abbreviates: dose: 100.0 mg/kg/injection, schedule: Q01DX009 (ip), vehicle: saline with Tween-80.
Setting [3] is: dose: 100.0 mg/kg/injection, schedule: Q01DX009 (ip), vehicle: saline.
The mark [4] stands for this setting: dose: 100.0 mg/kg/injection, schedule: Q04DX003 (ip), vehicle: saline.
Where [5] appears, read: dose: 200.0 mg/kg/injection, schedule: Q01DX009 (ip), vehicle: saline with Tween-80.
Setting [6] is: dose: 1.0 mg/kg/injection, schedule: Q01DX009 (ip), vehicle: saline.
[7] abbreviates: dose: 2.0 mg/kg/injection, schedule: Q01DX009 (ip), vehicle: saline.
The mark [8] stands for this setting: dose: 200.0 mg/kg/injection, schedule: Q01DX009 (ip), vehicle: saline.

Values joined by “and” are separate entries in the source; they are usually repeats but may differ in a detail not shown here. Equal entries are not always repeated. Toxic doses and inconclusive results are not listed.

On to `CC1CN1P1(N2CC2C)=NP(N2CC2C)(N2CC2C)=NP(N2CC2C)(N2CC2C)=N1` (centres undefined), for which the T/C by setting is: (dose: 12.5 mg/kg/injection, schedule: Q04DX003 (ip), vehicle: saline) 100 % of control; (dose: 25.0 mg/kg/injection, schedule: Q01DX009 (ip), vehicle: saline) 154 % of control; (dose: 25.0 mg/kg/injection, schedule: Q04DX003 (ip), vehicle: saline) 112 % of control; (dose: 33.0 mg/kg/injection, schedule: Q01DX009 (ip), vehicle: saline with Tween-80) 154 % of control; under setting [1], 170 % of control and 193 % of control; (dose: 50.0 mg/kg/injection, schedule: Q01DX009 (ip), vehicle: saline) 172 % of control. In addition, the T/C runs as follows: (dose: 66.0 mg/kg/injection, schedule: Q04DX003 (ip), vehicle: saline) 154 % of control; (dose: 75.0 mg/kg/injection, schedule: Q01DX009 (ip), vehicle: saline with Tween-80) 218 % of control; under setting [2], 102 % of control; under setting [3], 90 % of control; under setting [4], 181 % of control.
As to `CCCC(C)C/C(C)=C/C(C)(C)C(CC(=O)N1CCOCC1)C(=O)O` (centres undefined), the T/C is, setting by setting: (dose: 25.0 mg/kg/injection, schedule: Q04DX003 (ip), vehicle: saline with Tween-80) 100 % of control; (dose: 50.0 mg/kg/injection, schedule: Q04DX003 (ip), vehicle: saline with Tween-80) 100 % of control; (dose: 100.0 mg/kg/injection, schedule: Q04DX003 (ip), vehicle: saline with Tween-80) 100 % of control.
In the case of `CSc1ncc2c(=O)c3c(ccc4ccccc43)oc2n1`, the T/C is 93 % of control (dose: 3.12 mg/kg/injection, schedule: Q01DX009 (ip), vehicle: saline with Tween-80); 102 % of control (dose: 6.25 mg/kg/injection, schedule: Q01DX009 (ip), vehicle: saline with Tween-80); 96 % of control (dose: 12.5 mg/kg/injection, schedule: Q01DX009 (ip), vehicle: saline with Tween-80).
As to `COc1ccc(OC)c2c1CCC(O)(C#N)C2` (centres undefined), the T/C reads like this: (dose: 3.13 mg/kg/injection, schedule: Q01DX009 (ip), vehicle: other) 100 % of control and 101 % of control; (dose: 6.25 mg/kg/injection, schedule: Q01DX009 (ip), vehicle: other) 100 % of control and 102 % of control; (dose: 12.5 mg/kg/injection, schedule: Q01DX009 (ip), vehicle: other) 101 % of control.
As to `CCCCCCC(/C=C/c1ccc(Cl)c(Cl)c1)=N\Nc1c(F)c(F)c(F)c(F)c1F`, the T/C reads like this: under setting [1], 86 % of control; under setting [2], 99 % of control; under setting [5], 98 % of control.
For the compound `COc1ccc(-c2cc(=O)c3c(O)c(OC)c(OC)cc3o2)cc1O`, the T/C is, setting by setting: (dose: 18.8 mg/kg/injection, schedule: Q04DX002 (ip), vehicle: saline with Tween-80) 96 % of control; (dose: 37.5 mg/kg/injection, schedule: Q04DX002 (ip), vehicle: saline with Tween-80) 102 % of control; (dose: 75.0 mg/kg/injection, schedule: Q04DX002 (ip), vehicle: saline with Tween-80) 93 % of control; (dose: 150.0 mg/kg/injection, schedule: Q04DX002 (ip), vehicle: saline with Tween-80) 96 % of control.
For the compound `Clc1ccc(C2=NON(c3ccccn3)C3C=CC=CN23)cc1` (centres undefined), the T/C is 97 % of control (dose: 50.0 mg/kg/injection, schedule: Q01DX005 (ip), vehicle: saline with Tween-80); 93 % of control (dose: 100.0 mg/kg/injection, schedule: Q01DX005 (ip), vehicle: saline with Tween-80); 93 % of control (dose: 200.0 mg/kg/injection, schedule: Q01DX005 (ip), vehicle: saline with Tween-80).
Regarding `[Cl][Mn][Cl]`, the T/C by setting is: (dose: 0.25 mg/kg/injection, schedule: Q01DX009 (ip), vehicle: saline) 99 % of control; (dose: 0.5 mg/kg/injection, schedule: Q01DX009 (ip), vehicle: saline) 90 % of control and 97 % of control; under setting [6], 100 % of control; under setting [7], 88 % of control and 94 % of control; (dose: 4.0 mg/kg/injection, schedule: Q01DX009 (ip), vehicle: suspension in saline) 119 % of control; (dose: 8.0 mg/kg/injection, schedule: Q01DX009 (ip), vehicle: saline) 90 % of control. The T/C (dose: 8.0 mg/kg/injection, schedule: Q01DX009 (ip), vehicle: suspension in saline) is 97 % of control; the T/C (dose: 16.0 mg/kg/injection, schedule: Q01DX009 (ip), vehicle: saline) is 100 % of control; the T/C (dose: 16.0 mg/kg/injection, schedule: Q01DX009 (ip), vehicle: suspension in saline) is 116 % of control; the T/C (dose: 32.0 mg/kg/injection, schedule: Q01DX009 (ip), vehicle: suspension in saline) is 119 % of control; the T/C (dose: 64.0 mg/kg/injection, schedule: Q01DX009 (ip), vehicle: saline) was 100 % of control and 106 % of control; the T/C (dose: 64.0 mg/kg/injection, schedule: Q01DX009 (ip), vehicle: suspension in saline) was 97 % of control.
With `CC1C2=C(CCCC2=O)O/C1=N\O` (centres undefined), the T/C (dose: 100.0 mg/kg/injection, schedule: Q04DX003 (ip), vehicle: Klucel (hydroxypropylcellulose) (HPC)) is 96 % of control; the T/C (dose: 200.0 mg/kg/injection, schedule: Q04DX003 (ip), vehicle: Klucel (hydroxypropylcellulose) (HPC)) was 90 % of control; the T/C (dose: 400.0 mg/kg/injection, schedule: Q04DX003 (ip), vehicle: Klucel (hydroxypropylcellulose) (HPC)) was 93 % of control.
Take `CC(=O)Nc1ccc(/C=N/Nc2ccc([N+](=O)[O-])cn2)cc1`: the T/C runs as follows: under setting [3], 86 % of control; under setting [8], 90 % of control; (dose: 400.0 mg/kg/injection, schedule: Q01DX009 (ip), vehicle: saline) 90 % of control.
For the compound `COc1cc2c(cc1O)N=C[C@@H]1CCC(O)N1C2=O` (mixture of isomers), the T/C under setting [6] was 96 % of control and the T/C under setting [7] was 104 % of control.
On to `O=NNc1nc2c(Cl)cccc2s1`, for which the T/C is, setting by setting: (dose: 1.56 mg/kg/injection, schedule: Q01DX009 (ip), vehicle: water) 102 % of control; (dose: 3.12 mg/kg/injection, schedule: Q01DX009 (ip), vehicle: water) 101 % of control; (dose: 3.15 mg/kg/injection, schedule: Q01DX009 (ip), vehicle: water) 102 % of control; (dose: 6.25 mg/kg/injection, schedule: Q01DX009 (ip), vehicle: water) 99 % of control and 100 % of control; (dose: 12.5 mg/kg/injection, schedule: Q01DX009 (ip), vehicle: water) 99 % of control and 114 % of control; (dose: 25.0 mg/kg/injection, schedule: Q01DX009 (ip), vehicle: water) 100 % of control and 111 % of control. The T/C (dose: 50.0 mg/kg/injection, schedule: Q01DX009 (ip), vehicle: water) was 106 % of control.
For `NNC(=O)CCCO`, the T/C by setting is: (dose: 50.0 mg/kg/injection, schedule: Q04DX003 (ip), vehicle: saline) 105 % of control; under setting [4], 98 % of control; (dose: 200.0 mg/kg/injection, schedule: Q04DX003 (ip), vehicle: saline) 103 % of control; (dose: 400.0 mg/kg/injection, schedule: Q04DX003 (ip), vehicle: saline) 105 % of control.
As for `COc1cccc2c1C(=O)c1c(O)c3c(c(O)c1C2=O)CC(O)(C(C)=O)CC3OC1CC(NC(=O)C(CCCCN)NC(=O)C2CCCN2)C(O)C(C)O1` (centres undefined), the T/C by setting is: (dose: 2.5 mg/kg/injection, schedule: Q04DX003 (ip), vehicle: water) 93 % of control; (dose: 5.0 mg/kg/injection, schedule: Q04DX003 (ip), vehicle: water) 98 % of control; (dose: 10.0 mg/kg/injection, schedule: Q04DX003 (ip), vehicle: water) 99 % of control and 109 % of control; (dose: 20.0 mg/kg/injection, schedule: Q04DX003 (ip), vehicle: water) 110 % of control and 118 % of control; (dose: 40.0 mg/kg/injection, schedule: Q04DX003 (ip), vehicle: water) 121 % of control and 123 % of control; (dose: 80.0 mg/kg/injection, schedule: Q04DX003 (ip), vehicle: water) 166 % of control.
Turning to `CCOC(=O)\C(C#N)=C/C=C(C)/C(C)=C/Nc1ccc([N+](=O)[O-])cc1[N+](=O)[O-]`, the T/C by setting is: (dose: 50.0 mg/kg/injection, schedule: Q01DX005 (ip), vehicle: Klucel (hydroxypropylcellulose) (HPC)) 101 % of control; (dose: 100.0 mg/kg/injection, schedule: Q01DX005 (ip), vehicle: Klucel (hydroxypropylcellulose) (HPC)) 91 % of control; (dose: 200.0 mg/kg/injection, schedule: Q01DX005 (ip), vehicle: Klucel (hydroxypropylcellulose) (HPC)) 91 % of control.
With `CC(=O)NCCCC(=O)O`, under setting [8], the T/C was 98 % of control.
For `CCCCCCCCCSc1ccc(C(=O)O)cc1`, the T/C is, setting by setting: under setting [2], 109 % of control; under setting [5], 103 % of control; (dose: 400.0 mg/kg/injection, schedule: Q01DX009 (ip), vehicle: saline with Tween-80) 105 % of control.
